{"source": "patent US20220340564A1", "about": "“ANTIBACTERIAL COMPOUNDS” (Janssen Sciences Ireland Unlimited Company, priority 2019, published 2022)", "key": {"[1]": {"system": "M. tuberculosis H37Rv", "conditions": "M. tuberculosis H37Rv inside macrophages; J. Medicinal Chemistry, 2014, 57 (12), pp 5293-5305; cited from earlier work"}, "[2]": {"conditions": "in vivo"}, "[3]": {"test": "physchem", "conditions": "thermodynamic from solid"}, "[4]": {"system": "Na Ch", "test": "CVS panel, Na channel"}, "[5]": {"test": "AMES II", "format": "cell-based", "excerpt": "(§1) The compounds of the invention/examples may have advantages associated with in vitro potency, kill kinetics (i.e. bactericidal effect) in vitro, PK properties, food effect, safety/toxicity (including liver toxicity, coagulation, […]), metabolic stability, Ames II negativity, MNT negativity, aqueous based solubility (and ability to formulate) and/or cardiovascular effect e.g. on animals (e.g. anesthetized guinea pig). The data below that was generated/calculated may be obtained using standard methods/assays, for instance that are available in the literature or which may be performed by a supplier (e.g. Microsomal Stability Assay—Cyprotex, Mitochondrial toxicity (Glu/Gal) assay —Cyprotex, as well as literature CYP cocktail inhibition assays). In some instances, GSH was measured (reactive metabolites, glucuronidation) to observe if a dihydrodiol is observed by LCMS (fragmentation ions), which would correspond to a dihydroxylation on the core heterocycle."}, "[6]": {"system": "Cyp-450 (cocktail, isoforms not named)", "test": "Cocktail Cyp-450 inhibition", "format": "in vitro ADME", "excerpt": "as §1"}, "[7]": {"test": "Mitochondrial toxicity (Glu/Gal) assay", "format": "cell-based", "excerpt": "as §1"}, "[8]": {"system": "Mycobacterium tuberculosis strain EH4.0 expressing green-fluorescent protein (GFP)", "test": "microbe, parasite or virus in culture", "format": "cell-based", "conditions": "168 h, read-out: pIC50 (converted)"}, "[9]": {"target": "hERGdof (Homo sapiens, UniProt Q12809)", "sequence (Q12809 whole entry)": "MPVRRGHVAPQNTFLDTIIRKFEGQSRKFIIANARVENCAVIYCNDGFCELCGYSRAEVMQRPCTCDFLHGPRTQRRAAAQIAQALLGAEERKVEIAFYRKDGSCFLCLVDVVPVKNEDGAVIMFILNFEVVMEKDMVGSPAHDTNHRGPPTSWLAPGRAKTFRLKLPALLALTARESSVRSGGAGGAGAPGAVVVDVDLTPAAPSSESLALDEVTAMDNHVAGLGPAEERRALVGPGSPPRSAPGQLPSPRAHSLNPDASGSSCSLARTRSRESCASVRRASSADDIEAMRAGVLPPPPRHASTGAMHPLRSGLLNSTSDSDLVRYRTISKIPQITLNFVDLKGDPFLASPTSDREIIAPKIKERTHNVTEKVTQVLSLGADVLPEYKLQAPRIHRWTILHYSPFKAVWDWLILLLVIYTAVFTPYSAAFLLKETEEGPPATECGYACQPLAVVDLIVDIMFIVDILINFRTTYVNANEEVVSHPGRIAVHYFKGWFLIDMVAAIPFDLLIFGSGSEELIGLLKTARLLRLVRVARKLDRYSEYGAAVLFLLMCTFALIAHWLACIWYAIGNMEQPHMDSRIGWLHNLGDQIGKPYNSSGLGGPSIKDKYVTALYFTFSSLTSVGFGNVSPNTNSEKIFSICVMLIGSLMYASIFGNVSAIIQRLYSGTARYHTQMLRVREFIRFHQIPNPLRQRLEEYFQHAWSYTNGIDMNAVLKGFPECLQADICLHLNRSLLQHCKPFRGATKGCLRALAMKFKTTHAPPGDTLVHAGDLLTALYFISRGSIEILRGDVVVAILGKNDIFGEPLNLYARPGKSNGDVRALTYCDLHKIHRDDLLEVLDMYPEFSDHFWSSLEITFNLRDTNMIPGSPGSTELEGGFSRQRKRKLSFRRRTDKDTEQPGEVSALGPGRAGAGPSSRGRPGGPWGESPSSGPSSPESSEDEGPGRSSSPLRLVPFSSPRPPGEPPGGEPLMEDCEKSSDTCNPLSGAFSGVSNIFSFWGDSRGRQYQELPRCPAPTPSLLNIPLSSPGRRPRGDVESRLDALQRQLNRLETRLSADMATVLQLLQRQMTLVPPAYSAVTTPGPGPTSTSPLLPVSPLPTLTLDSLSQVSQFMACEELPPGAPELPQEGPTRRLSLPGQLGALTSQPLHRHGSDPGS", "test": "CVS panel, hERGdof", "format": "binding", "conditions": "read-out: CVS hERGdof, IC50"}, "[10]": {"test": "in vitro", "conditions": "mouse, hepatocytes"}, "[11]": {"test": "in vitro", "conditions": "rat, hepatocytes"}, "[12]": {"test": "in vitro", "conditions": "human"}, "[13]": {"test": "in vitro", "conditions": "mouse"}, "[14]": {"test": "in vivo", "conditions": "rat, po, 5 mg/kg", "description": "Oral Bioavailability of Compound 161 in Rat\nCompound 161 was administer PO in rat (5 mg/kg, PEG4000 (sol.), 0.5 w/v Methocel (susp.) and the following results were obtained for the solution and suspension."}, "[15]": {"system": "Ca Ch", "test": "CVS panel, Ca channel", "excerpt": "as §1"}, "[16]": {"system": "Cyp 3A4", "test": "Cyp 3A4 induction", "conditions": "at 1 μM"}, "[17]": {"test": "in vitro", "conditions": "human, hepatocytes"}, "[18]": {"test": "in vitro", "conditions": "dog, hepatocytes"}, "[19]": {"target": "Kinase panel", "test": "Kinase panel", "format": "biochemical"}}}
{"smiles": "CCc1nc2ccc(Cl)cn2c1C(=O)NCc1ccc(N2CCC(c3ccc(OC(F)(F)F)cc3)CC2)cc1", "note": "[Compound Q203]", "values": [{"measurement": "MIC50", "setting": "[1]", "result": 0.28, "unit": "nM"}]}
{"smiles": "CCc1nc2ncc(C)cn2c1C(=O)NCc1ccc(N2CCN(S(=O)(=O)C(F)(F)F)C=N2)c(F)c1", "note": "[Compound 161]", "values": [{"measurement": "bioavailability (as shown in rodents)", "setting": "[2]", "result": "good bioavailaibility"}, {"measurement": "solubility thermodynamic", "setting": "[3]; fassif", "result": 5, "unit": "µg/mL"}, {"measurement": "solubility thermodynamic", "setting": "[3]; fessif", "result": 16, "unit": "µg/mL"}, {"measurement": "solubility thermodynamic", "setting": "[3]; pH 2, simulated gastric fluid", "result": 33, "unit": "µg/mL"}, {"measurement": "solubility thermodynamic", "setting": "[3]; pH 7, aqueous buffer", "result": "< 0.02", "unit": "µg/mL"}, {"measurement": "IC50", "setting": "[4]", "result": "> 10", "unit": "µM"}, {"measurement": "AMES II", "setting": "[5]", "result": "negative"}, {"measurement": "IC50", "setting": "[6]", "result": "> 20", "unit": "µM"}, {"measurement": "Glu/Gal assay ratio (mitotoxicity)", "setting": "[7]", "result": "< 3"}, {"measurement": "IC50", "setting": "[8]", "result": 0.000776, "unit": "µM"}, {"measurement": "IC50", "setting": "[9]", "result": 15.8, "unit": "µM"}, {"measurement": "hepatocyte CLint", "setting": "[10]", "result": 12, "unit": "µL/min/1e6 cells"}, {"measurement": "hepatocyte CLint", "setting": "[11]", "result": 19, "unit": "µL/min/1e6 cells"}, {"measurement": "fraction unbound", "setting": "[12]", "result": 0.015}, {"measurement": "fraction unbound", "setting": "[13]", "result": 0.0245}, {"measurement": "AUC0-inf", "setting": "[14]", "result": "5.61 ± 2.747", "unit": "µg·h/mL"}, {"measurement": "AUC0-inf", "setting": "[14]; AUC0-inf", "result": "10.9 ± 1.72", "unit": "µg·h/mL"}, {"measurement": "Cmax", "setting": "[14]; Cmax", "result": "1.23 ± 0.406", "unit": "µg/mL"}, {"measurement": "Tmax", "setting": "[14]; Tmax", "result": 4, "unit": "h"}, {"measurement": "half-life", "setting": "[14]; t1/2", "result": "3.55 ± 0.45", "unit": "h"}, {"measurement": "IC50", "setting": "[15]", "result": "> 10", "unit": "µM"}, {"measurement": "Cyp 3A4 induction (% control)", "setting": "[16]", "result": 3.0, "unit": "% control"}, {"measurement": "hepatocyte CLint", "setting": "[17]", "result": 6.7, "unit": "µL/min/1e6 cells"}, {"measurement": "hepatocyte CLint", "setting": "[18]", "result": 4.7, "unit": "µL/min/1e6 cells"}, {"measurement": "Kinase panel", "setting": "[19]", "result": "negative"}]}
